Laboratory results from article PMC10783087 (Microbiology Spectrum, 2023).
≈ marks a conversion by molar mass, not a printed value. Where “and” joins values, the source holds several entries; their conditions need not be identical. Equal values may be shown once. Read-outs that look alike come from different tables or passages of the source.

Assays:
[1] = tested on: Mtb; conditions: cited from earlier work
[2] = assay type: in vitro ADME, mouse
Protocol: The mouse microsomal stability assay was conducted as described by Obach ([57]), and the results are presented as the percentages remaining after 30 min. Values greater than 100% are likely due to changes in the solubility of the compounds over the course of the assay and represent high stability in microsomes.

[3] = physchem; assay type: physicochemical; conditions: aqueous buffer, kinetic from dmso stock
Protocol: The kinetic solubility assay was conducted as previously described ([18]). Briefly, using methods described by Bevan and Lloyd ([56]), the assay was performed with 7-point (twofold) dilutions of the compounds, from 200 to 3.125 μM along with mebendazole, bexarotene, and aspirin as controls. The drug dilutions were added to PBS, pH 7.4, with a DMSO concentration of 1% (final), and incubated at 37°C for 2 h. The absorbance at 620 nm was measured for each drug dilution to estimate the solubility of the compound in triplicate/ dilution.

[4] = assay type: in vivo, female C57Bl/6 mice; conditions: 200 mg/kg oral in corn oil
Protocol: Female C57Bl/6 mice were dosed with 200 mg/kg (based on the average body mass of 27 mice) of MSU-43085, MSU-43165, or MSU-43170 formulated in corn oil by oral gavage. At 1-, 2-, and 4-h post treatment, blood samples were taken from three mice from each treatment group by cardiac puncture and placed in BD Lithium HeparinN Vacutainer tubes. Plasma was separated from whole blood by centrifuge, and compounds were methanol extracted. Lungs were harvested from mice 4- h post treatment. Lung samples were homogenized using a closed tissue grinder system (Fisherbrand—02-542-09), and compounds were methanol extracted from lung homogenates. Methanol-extracted samples were quantified by UPLC/MS/MS.

[5] = tested on: Mtb CDC1551 FFluc reporter strain in primary bone marrow-derived macrophages; test: microbe, parasite or virus in culture; assay type: cell-based; conditions: Mycobacterium tuberculosis, Macrophage; for EC90: read-out: ex vivo EC90
[6] = tested on: Mtb; test: microbe, parasite or virus in culture; assay type: cell-based, Mycobacterium tuberculosis; conditions: for EC50: read-out: In vitro EC50; for EC90: read-out: In vitro EC90
[7] = tested on: primary bone marrow-derived macrophages (BMMΦ); conditions: for S.I. (CC50 / EC50): BMMΦ CC50 / ex vivo EC50, Table S1; for Si (CC50/EC50): macrophage CC50 / in vitro Mtb EC50
[8] = in vitro; conditions: mouse
[9] = tested on: Erdman; test: microbe, parasite or virus in culture; assay type: cell-based; conditions: Mycobacterium tuberculosis
[10] = in vitro; assay type: cell-based; conditions: human, 24 h treatment
Protocol: For additional cell lines including HepG2, HeLa, and THP-1, the following protocol was used. HepG2 (ATCC HB-8065) and HeLa (ATCC CCL-2) were cultured in cEMEM supplemented with 10% (vol/vol)/FBS and 1%(vol/vol) PenStrep. THP-1 cells were cultured in cRPMI-1640 medium (ATCC 30-2001) supplanted with 10% (vol/vol) FBS and 0.05 mM 2-mercaptoethanol (Sigma M3148). THP-1 cells were seeded in 96 well plates at 1 × 10^5 cells/mL with complete medium. HepG2 and HeLa cells were seeded in 96 well plates with cEMEM at 1 × 10^6 cells/mL. Cells were treated with compounds by dose response in a range of 128–0.48 µg/mL in triplicate or mitomycin C at a range of 128–0.0625 µM. Cells were treated for 24 h at 37°C with 5% CO2. Cells were then treated with either MTT or resazurin for 4 h. Absorbance was then measured at 570 nm for MTT plates. Percent cytotoxicity was calculated relative to positive mitomycin C and untreated controls. Percent cytotoxicity was used to calculate the IC50 using Graphpad prism software using non-linear regression analysis.

[11] = tested on: H37Rv (ΔkatG); assay type: cell-based
[12] = tested on: H37Rv; test: microbe, parasite or virus in culture; assay type: cell-based; conditions: Mycobacterium tuberculosis, read-out: MIC, H37Rv
[13] = tested on: Mtb Erdman; assay type: in vivo, Mycobacterium tuberculosis; conditions: for median lung bacterial burden: C57Bl/6 mice, oral gavage 2 weeks; for median lung bacterial burden / colonies in spleens (dissemination): INH 25 mg/kg, MSU compounds 200 mg/kg
[14] = tested on: M. avium ATC 700891 (MAC 101) in THP-1 cells; test: Ex vivo (intra-macrophage) activity in infected THP-1 cells, resazurin; assay type: cell-based
Protocol: (§1) THP-1 cells were infected with either M. avium or M. abscessus at an MOI of 10 for 4 h prior to treatment. Following infection, cells were washed twice with PBS to remove non-phagocytosed bacteria. Fresh medium was then added, and cells were treated with concentrations ranging from 64 to 0.24 µg/mL and incubated for 24 h at 37°C with 5% CO2. Following 24 h of treatment, cells were treated with resazurin (0.04 mg/mL) and incubated for an additional 3–5 days. Absorbance was measured for each well at 570 and 600 nm. The percent growth reduction was calculated relative to treated and untreated controls.

[15] = tested on: M. abscessus ATCC 19977 in THP-1 cells; test: as above; assay type: cell-based
Protocol: as §1

[16] = tested on: M. avium ATC 700891 (MAC 101); test: In vitro MIC against NTM, microbroth dilution; assay type: cell-based; conditions: Mycobacterium avium, 168 h; 7 days
[17] = tested on: M. abscessus ATCC 19977; test: In vitro MIC against NTM, microbroth dilution; assay type: cell-based; conditions: Mycobacteroides abscessus, ATCC19977, 168 h; 7 days
[18] = Table S5, % remaining after 30 minutes with mouse microsomes
[19] = mouse microsomes, % remaining after 30 min
[20] = 37 °C, PBS pH 7.4, read-out: Kinetic solubility pH 7.4
[21] = PBS pH 2.0, read-out: Kinetic solubility pH 2.0
[22] = intracellular Mtb in BMMΦ, Table S1
[23] = read-out: intra-macrophage EC50
[24] = Mycobacterium tuberculosis, 144 h

For `CC1(C)CCC(NC(=O)c2cc3c(F)cc(F)cc3[nH]2)CC1` [NITD-349], the MIC [1] is given as 0.03 µM (≈ 0.00919 µg/mL).

For `CC(C)N(C(=O)COc1nc2cc(Cl)c(Cl)cc2[nH]1)C(C)C` [MSU-43170], the “Microsome Stability” value [2, 18] was 95%, the Microsome Stability [2, 19] was 95% and the solubility kinetic [3, 20] was > 50 µM. The solubility kinetic [3, 21] was > 300 µM, the “Blood plasma concentration (2 h, fold EC50)” value ([4]; 2 h time point (1 h unavailable)) was 4 fold EC50 and 4× ^ a fold EC50 and the EC90 [5, 22] was 140 nM. The EC50 [5, 23] was 35 nM, the EC50 [6, 24] was 116 nM and the EC90 [6, 24] was 263 nM. For the same compound, the EC50 [6] was 120 nM, the EC90 [6] was 260 nM and the “S.I. (CC50 / EC50)” value [7] was > 2285. The “Si (CC50/EC50)” value [7] was >667 and the CC50 [8] was > 80000 nM.

In the case of `COc1nc2ccc(Br)cc2cc1[C@@H](c1ccccc1)[C@@](O)(CCN(C)C)c1cccc2ccccc12` [Bedaquiline], the EC50 [9] is reported as 220 nM.

`CO[C@@]12[C@H](COC(N)=O)C3=C(C(=O)C(C)=C(N)C3=O)N1C[C@@H]1N[C@@H]12` [Mitomycin C, reference compound] gave an IC50 ([10]; read-out: HeLa Cytotoxicity (IC50)) of 10.5 µg/mL (≈ 31.5 µM), an IC50 ([10]; read-out: HepG2 Cytotoxicity (IC50)) of 23 µg/mL (≈ 68.8 µM) and an IC50 ([10]; read-out: THP-1 Cytotoxicity (IC50)) of 3.09 µg/mL (≈ 9.25 µM).

For `COc1c(N2C[C@@H]3CCCN[C@@H]3C2)c(F)cc2c(=O)c(C(=O)O)cn(C3CC3)c12` [Moxifloxacin], the “MIC, H37Rv (ΔkatG)” value [11] was 0.15 µM (≈ 0.0602 µg/mL) and the MIC [12] was 0.15 µM (≈ 0.0602 µg/mL).

In the case of `NNC(=O)c1ccncc1` [Isoniazid], the “median lung bacterial burden” value [13] is reported as “no colonies were isolated”, the “colonies in spleens (dissemination)” value [13] is reported as “no colonies were isolated” and the “MIC, H37Rv (ΔkatG)” value [11] is reported as >14.5 µM. It also gave an MIC [12] of 0.2 µM (≈ 0.0274 µg/mL).

With `CC(C)N(C(=O)CNc1nc2cc(Cl)c(Cl)cc2[nH]1)C(C)C` [MSU-43165] the “Microsome Stability” value [2, 18] was 106%, the Microsome Stability [2, 19] was 106% and the solubility kinetic [3, 20] was > 150 µM. For the same compound, the solubility kinetic [3, 21] was > 300 µM, the “Blood plasma concentration (1 h, fold EC50)” value ([4]; 1 h) was 1.3 fold EC50 and 1.3× fold EC50 and the “absolute difference of the median lung burden vs vehicle control” value ([13]; 200 mg/kg oral, 2 weeks, not significant (P > 0.99)) was 1.6 × 10^4 CFUs/mL. For the same compound, the “median lung bacterial burden” value [13] was 5.7 × 10^3 CFUs/mL, the “colonies in spleens (dissemination)” value [13] was “colonies could also be detected” and the EC50 ([5]; intracellular Mtb in BMMΦ, Table S1, read-out: ex vivo EC50) was 130 nM. It also gave an EC90 [5, 22] of 150 nM, an EC50 [5, 23] of 134 nM and an EC50 [6, 24] of 380 nM. For the same compound, the EC90 [6, 24] was 628 nM, the EC90 [6] was 630 nM and the “S.I. (CC50 / EC50)” value [7] was > 596.6. The “Si (CC50/EC50)” value [7] was >210 and the CC50 [8] was > 80000 nM.

With `CC[C@H]1OC(=O)[C@H](C)[C@@H](O[C@H]2C[C@@](C)(OC)[C@@H](O)[C@H](C)O2)[C@H](C)[C@@H](O[C@@H]2O[C@H](C)C[C@H](N(C)C)[C@H]2O)[C@](C)(OC)C[C@@H](C)C(=O)[C@H](C)[C@@H](O)[C@]1(C)O` [Clarithromycin] the “Ex vivo (>90% inhibition), M. avium ATC 700891 (MAC 101)” value [14] was 171 µM, the “Ex vivo (>90% inhibition), M. abscessus ATCC 19977” value [15] was 86 µM and the MIC [16] was 0.08 µM (≈ 0.0598 µg/mL). It also gave an MIC [17] of 1.4 µM (≈ 1.05 µg/mL).
